Assay results: the NIST ThermoML archive (doi:10.1016/j.jct.2012.11.020)
± gives the expanded uncertainty stated by the source.

What was measured:
[1] = 100 kPa, Liquid; for viscosity: Cone and plate viscometry; for mass density: Vibrating tube method; for electrical conductivity: Alternating current cell with electrodes
[2] = xn = mol fraction of the nth substance listed; details: 100 kPa, Liquid, x2 = 0; for viscosity: Cone and plate viscometry; for mass density: Vibrating tube method

SMILES	viscosity ([1]; 283.15 K)	mass density ([1]; 283.15 K)	viscosity ([1]; 293.15 K)	mass density ([1]; 293.15 K)	viscosity ([1]; 303.15 K)	mass density ([1]; 303.15 K)	viscosity ([1]; 313.15 K)	mass density ([1]; 313.15 K)	viscosity ([1]; 323.15 K)	mass density ([1]; 323.15 K)	viscosity ([1]; 333.15 K)	mass density ([1]; 333.15 K)	viscosity ([1]; 343.15 K)	mass density ([1]; 343.15 K)	viscosity ([1]; 353.15 K)	mass density ([1]; 353.15 K)	other results
C1CC[NH2+]C1.O=[N+]([O-])[O-] [pyrrolidinium nitrate]	58.87 mPa·s	1235 ± 2.8 kg/m3	40.29 mPa·s	1228 ± 2.7 kg/m3	28.81 mPa·s	1220.4 ± 2.7 kg/m3	20.91 mPa·s	1213.1 ± 2.7 kg/m3	16.7 mPa·s	1205.5 ± 2.7 kg/m3	13.3 mPa·s	1197.2 ± 2.7 kg/m3	11.17 mPa·s	1190.2 ± 2.6 kg/m3	9.28 mPa·s	1182 ± 2.6 kg/m3	electrical conductivity ([1]; 284.15 K): 2.93 ± 0.23 S/m; electrical conductivity ([1]; 293.15 K): 3.71 ± 0.3 S/m; electrical conductivity ([1]; 298.15 K): 4.22 ± 0.34 S/m; electrical conductivity ([1]; 304.15 K): 4.94 ± 0.4 S/m; electrical conductivity ([1]; 313.15 K): 5.97 ± 0.48 S/m; electrical conductivity ([1]; 323.15 K): 7.17 ± 0.57 S/m; electrical conductivity ([1]; 333.15 K): 8.51 ± 0.68 S/m; electrical conductivity ([1]; 344.95 K): 9.3 ± 0.74 S/m; electrical conductivity ([1]; 353.65 K): 10.5 ± 0.84 S/m
CC1COC(=O)O1 (configuration not stated) [4-methyl-1,3-dioxolan-2-one]	4.25 mPa·s	1216.3 ± 2.4 kg/m3	2.96 mPa·s	1205.2 ± 2.4 kg/m3	2.2 mPa·s	1194.5 ± 2.4 kg/m3	1.8 mPa·s	1183.9 ± 2.4 kg/m3	1.56 mPa·s	1173.4 ± 2.3 kg/m3	1.4 mPa·s	1162.9 ± 2.3 kg/m3	1.26 mPa·s	1152.3 ± 2.3 kg/m3	1.15 mPa·s	1141.6 ± 2.3 kg/m3	–
CC1COC(=O)O1 (configuration not stated) [4-methyl-1,3-dioxolan-2-one] + C1CC[NH2+]C1.O=[N+]([O-])[O-]	–	–	–	–	–	–	–	–	–	–	–	–	–	–	–	–	viscosity ([2]; 283.15 K): 4.25 mPa·s; mass density ([2]; 283.15 K): 1216.3 ± 2.4 kg/m3; viscosity ([2]; 293.15 K): 2.96 mPa·s; mass density ([2]; 293.15 K): 1205.2 ± 2.4 kg/m3; viscosity ([2]; 303.15 K): 2.2 mPa·s; mass density ([2]; 303.15 K): 1194.5 ± 2.4 kg/m3; viscosity ([2]; 313.15 K): 1.8 mPa·s; mass density ([2]; 313.15 K): 1183.9 ± 2.4 kg/m3; viscosity ([2]; 323.15 K): 1.56 mPa·s; mass density ([2]; 323.15 K): 1173.4 ± 2.3 kg/m3; viscosity ([2]; 333.15 K): 1.4 mPa·s; mass density ([2]; 333.15 K): 1162.9 ± 2.3 kg/m3; viscosity ([2]; 343.15 K): 1.26 mPa·s; mass density ([2]; 343.15 K): 1152.3 ± 2.3 kg/m3; viscosity ([2]; 353.15 K): 1.15 mPa·s; mass density ([2]; 353.15 K): 1141.6 ± 2.3 kg/m3
